Laboratory results published in US4242354A, “2-(2-Thenolythio)-propionylglycine: method for its preparation and pharmaceutical formulations containing said compound” (Mediolanum Farmaceutici S.r.L., priority 1978, dated 1980).

Columns and labels:
[1] = Solubility and organoleptic properties; type: physicochemical
bromobenzene poisoning = experiment: Protective activity in the bromobenzene poisoning; type: in vivo, male rats (Sprague-Dawley)
Procedure: Fifty male rats (Sprague-Dawley, 180-200 g bodyweight) were used for the investigation, subdivided into 5 groups, each consisting of 10 animals, given orally the following compounds
(1) 5 percent gum arabic in tap water
(2) 5 percent gum arabic in tap water
(3) 2-(2-thenoylthio)-propionylglycine--200 mg/kg
(4) 2-(2-thenoylthio)-propionylglycine--300 mg/kg
Seven days later, the animals of the groups 2-3-4-[…] were given bromobenzene subcutaneously (150 mg/rat) while the remaining group (control) was given an equivalent volume of saline. Still seven days later, 5 of the animals of each group were given Nembutal (25 mg/kg/intraperitoneally), and the sleeping time was calculated.
The remaining 5 animals of each group were given bromophthalein at the dose of 50 mg intravenously; thirty minutes later, the animals were sacrificed and both the present bromophthalein and SGPT (serum glutamic pyruvic transaminase) were established in the blood.

[2] = Rogers' nonisothermic method: energies of activation, specific velocities, validity periods; type: physicochemical; settings: for stability vs 2-thiopropionylglycine (II): comparison of the two compounds
Procedure: (§1) The stability tests were carried out according to the Rogers' nonisothermic method suitably integrated by the evaluation of physical data, melting point, weight variation, and spectrophotometric assay. For each single compound, the tests were performed on a series of samples, with the weight of 100 milligrams, added for the wet tests with 1 ml of distilled water. […] The sample were kept in a thermostat at increasing temperatures, i.e. from 25° to 80° C. […] The temperature, programmed according to the Rogers' formula, resulted to be 40° C. at the end of the first hour, 50° C. at the end of the second hour, 57° C. at the end of the third hour, 63° C. at the end of the fourth hour, 69° C. at the end of the fifth hour, 73° C. at the end of the sixth hour, 77° C. at the end of the seventh hour and, as already specified, 80° C. at the end of the eighth hour.
The data shown in Table 7 were worked out according to the Rogers' method, drawing up the values of the energies of activation of the decomposition reactions under dry and wet conditions, the specific rate constants as well as the validity period.

[3] = test system: bronchopneumopathies of the pediatric age; experiment: Clinical trials in pediatry, mucolytic efficacy in bronchopneumopathies; type: in vivo, man; settings: decrease from 292.4±92.1 g/Hg, pediatric patients
[4] = test system: carbon tetrachloride poisoning; experiment: Protective activity in the carbon tetrachloride poisoning; type: in vivo, male rats (Sprague-Dawley)
Procedure: Fifty male rats (Sprague-Dawley, 180-200 grams bodyweight) were used for the investigation, subdivided into 5 groups: one group was given no treatment while the remaining 4 groups were poisoned for 7 consecutive days with CCl4 at the dosage of […] given subcutaneously.

[5] = test system: histamine-induced bronchial spasm; experiment: Bronchial spasm due to histamine aerosol in the guinea-pig; type: in vivo, spotted guinea-pigs, male, Morini strain; parameters: key to time of resistance to the spasm, significance vs. controls (S): h.s.: highly significant; settings: 50 mg/kg; for time of resistance to the spasm, significance vs. controls (S): one hour; for time of resistance to the spasm (E, mean ± standard error): one hour after treatment, control 114.1 ± 5.4
Procedure: Thirty spotted guinea-pigs, male, Morini strain, 400-500 g bodyweight, were used for the investigation, subdivided into 5 lots, each consisting of 6 animals. The animals were singly placed in a tightly sealed plexiglas cage into which a 0.1 percent aqueous solution of histamine hydrochloride was aerosolized. The time of resistance to the spasm was calculated from the moment of introduction into the cage up to the time of the appearance of the dyspnea crisis.
Group 1: controls with no treatment
In any case, the dose was 50 mg/kg.

elderly patients = type: in vivo, man
Procedure: The drug was assessed, with respect to its mucolytic action, on thirty elderly patients ([…], maximal 87, mean age 72). […] The improvement was assessed on the basis of the following parameters:
decrease of the daily quantity of sputum;
decrease of the viscosity of the sputum;
increase of the Tiffeneau's index;
improved value of the erythrocyte sedimentation rate.
A group of twenty patients, in the same mean age, was given for control purposes a known drug such as N-acetylcysteine.

physchem = experiment: physchem
Procedure: as §1
In the case of the wet-treated samples, the final weight was only established on the samples No. 10 brought to dryness at 60° C. under vacuum after an 8-hour heating.

CC(SC(=O)c1cccs1)C(=O)NCC(=O)O (stereo not drawn) [compound (I), 2-(2-thenoylthio)-propionylglycine]
odor [1]: odorless
taste [1]: practically tasteless
appearance in water ([1]; 100 milligrams with 1 ml of distilled water): white suspension
solubility ([1]; all other inorganic solvents (so in the source)): scarcely soluble
solubility ([1]; chloroform): soluble
solubility ([1]; saturated solution of NaHCO3): soluble
serum concentrations of SGPT (bromobenzene poisoning; oral, 200 and 300 mg/kg, bromobenzene-poisoned rat): significant reduction of the serum concentrations of SGPT
liver impairment induced by bromobenzene (bromobenzene poisoning; oral, 200 and 300 mg/kg, rat): able to reduce the liver impairment
sleeping time (Nembutal) (bromobenzene poisoning; oral, 200 and 300 mg/kg, Nembutal 25 mg/kg ip): statistically significant decrease of the sleeping time
rate of excretion of bromophthalein (bromobenzene poisoning; vs poisoned controls, bromophthalein 50 mg iv, 30 minutes): less evident
stability vs 2-thiopropionylglycine (II) ([2]; listed as 2-(2-thenoylthio)-propionyl-glycine (I)): markedly better stability
stability vs 2-thiopropionylglycine (II) ([2]; listed as 2-(2-thenoylthio)-propionylglycine (I)): markedly more stable than the correspondent 2-thiopropionylglycine (II)
Energy of activation of the decomposition reaction ([2]; dry): 12.28 kcal/mol
Validity period ([2]; dry): unlimited
K at 25° (specific rate constant) ([2]; dry, 25°): 0 h⁻¹
Energy of activation of the decomposition reaction ([2]; wet): 13.27 kcal/mol
mean viscosimetric value of the mucus after treatment [3]: 155.4±61.3 g/Hg
liver weight increase consequent to CCl4 ([4]; CCl4 0.5 ml/mg sc, 7 days, drugs intramuscularly, (I) 200 and 300 mg/kg, (II) 300 mg/kg): can prevent the liver weight increase
efficacy in comparison with 2-mercaptopropionylglycine ([4]; equivalent dosage, CCl4 poisoning, rat): statistically significant efficacy in preventing the liver weight increase as well as in reducing the liver fats levels
bronchial-spasm relieving action ([5]; all the assessed routes): remarkable bronchial-spasm relieving action
time of resistance to the spasm, significance vs. controls (S) ([5]; group 2, orally): h.s.
time of resistance to the spasm (E, mean ± standard error) ([5]; group 2, orally, before treatment 116.00 ± 8.84): 184.7 ± 14.2 s
time of resistance to the spasm, significance vs. controls (S) ([5]; group 3, aerosol): h.s.
time of resistance to the spasm (E, mean ± standard error) ([5]; group 3, aerosol, before treatment 113.00 ± 5.62): 170.3 ± 10.9 s
time of resistance to the spasm, significance vs. controls (S) ([5]; group 4, intraperitoneally): h.s.
time of resistance to the spasm (E, mean ± standard error) ([5]; group 4, intraperitoneally, before treatment 112.16 ± 7.9): 187.2 ± 16.1 s
time of resistance to the spasm, significance vs. controls (S) ([5]; group 5, rectally): h.s.
time of resistance to the spasm (E, mean ± standard error) ([5]; group 5, rectally, before treatment 117.5 ± 6.39): 178.5 ± 11.9 s
rapidity of action vs N-acetylcysteine (elderly patients; elderly patients): markedly better in terms of rapidity of action
fit of cough on aerosol administration (elderly patients; in vivo): no fit of cough was observed
patients with a marked improvement (elderly patients; of thirty elderly patients, two suppositories daily, each 0.36 grams, six days): Twenty-six
Content (physchem): 100.0%
E at 292 nm (physchem; as such): 0.438
remaining at 1.5 h (physchem; dry): 99.8%
remaining at 3 h (physchem; dry): 99.8%
remaining at 5.25 h (physchem; dry): 100%
remaining at 8 h (physchem; dry): 99.8%
E at 292 nm (physchem; sample 1, dry): 0.440
E at 292 nm (physchem; sample 2, dry): 0.435
E at 292 nm (physchem; sample 3, dry): 0.440
E at 292 nm (physchem; sample 4, dry): 0.440
E at 292 nm (physchem; sample 6, wet): 0.455
E at 292 nm (physchem; sample 7, wet): 0.450
E at 292 nm (physchem; sample 8, wet): 0.435
E at 292 nm (physchem; sample 9, wet): 0.412
